Laboratory results published in patent US20260007634A1, “PHARMACEUTICAL COMPOSITIONS FOR THE TREATMENT OF ALLERGIC DISEASES” (KINKI UNIVERSITY, priority 2022, published 2026).

Assays:
Assay type in all cases: in vivo, mouse
IL-5 [1] = assay: Serum IL-5 ELISA, food allergy mice; details: OVA food allergy; serum day 28; oral 10 mg/kg (dexamethasone 2 mg/kg); control 135, vehicle 916
Description: (§1) A 0.2 mL dose of 10 μg ovalbumin (OVA) and 1 mg Alum mixture was administered to 6-week-old female Balb/c mice (Japan SLC Inc.) (day 0 of the example). Alum was used as an adjuvant. Seven days later, the Balb/c mice were immunized again with a 0.2 mL injection of the above mixture. Starting on day 14, mice were orally treated with 10 mg/kg of norathyriol, 10 mg/kg of mangiferin 8a, 10 mg/kg of tofacitinib (JAK inhibitor), 2 mg/kg of dexamethasone (steroid) and 10 mg/kg of olopatadine (antihistamine) daily for 14 consecutive days. […]
Serum was collected from day 28 mice in Examples 21, and IL-5 production was measured by enzyme-linked immunosorbent assay (ELISA). This assay was performed using a mouse IL-5 ELISA kit (R&D).

IgE antibody = assay: Serum IgE antibody ELISA, food allergy mice; details: OVA food allergy; serum day 28; oral 10 mg/kg (dexamethasone 2 mg/kg); control 56, vehicle 124
Description: as §1
Serum was collected from day 28 mice in Examples 21, and IgE antibody production was measured by enzyme-linked immunosorbent assay (ELISA). This assay was performed using a mouse IgE antibody ELISA kit (R&D).

IL-5 [2] = assay: Serum IL-5 ELISA, allergic rhinitis mice; details: OVA allergic rhinitis; serum day 28; oral 10 mg/kg (dexamethasone 2 mg/kg); control 151, vehicle 1010
Description: (§2) A 0.2 mL dose of 50 μg ovalbumin (OVA) and 2 mg Alum mixture was administered to 6-week-old female Balb/c mice (Japan SLC Inc.) (day 0 of the example). Alum was used as an adjuvant. Seven days later and 14 days later, the Balb/c mice were immunized again with 0.2 mL injections of the above mixture. Starting on day 20, mice were orally treated with 10 mg/kg of norathyriol, 10 mg/kg of mangiferin 8a, 10 mg/kg of tofacitinib (JAK inhibitor), 2 mg/kg of dexamethasone (steroid) and 10 mg/kg of olopatadine (antihistamine) daily for 8 consecutive days. Starting on day 21, 400 μg OVA was administered intranasally, and nose-scratching behavior was measured on day 27. Note that tofacitinib, dexamethasone, and olopatadine are currently in clinical use in allergic rhinitis and were used as control drugs in this example.
Serum was collected from day 28 mice in Examples 6 and 7, and IL-5 production was measured by enzyme-linked immunosorbent assay (ELISA). This assay was performed using a mouse IL-5 ELISA kit (R&D).

IL-17 = assay: Serum IL-17 ELISA, allergic rhinitis mice; details: OVA allergic rhinitis; serum day 28; oral 10 mg/kg (dexamethasone 2 mg/kg); control 204, vehicle 945
Description: as §2
Serum was collected from day 28 mice in Examples 6 and 7, and IL-17 production was measured by enzyme-linked immunosorbent assay (ELISA). This assay was performed using a mouse IL-17 ELISA kit (R&D).

OVA-IgE antibody = assay: Serum OVA-IgE antibody ELISA, bronchial asthma mice; details: serum day 28, oral 10 mg/kg (dexamethasone 2 mg/kg), control 2.4, vehicle 66
Description: as §2, with “cough” for “nose-scratching behavior”
Serum was collected from day 28 mice in Examples 14, and OVA-IgE antibody production was measured by enzyme-linked immunosorbent assay (ELISA). This assay was performed using a mouse OVA-IgE antibody ELISAkit (FUJIFILM Wako).

IL-4 = assay: Serum IL-4 ELISA, cedar pollinosis mice; details: serum day 28, oral 10 mg/kg (dexamethasone 2 mg/kg), control 55, vehicle 374
Description: A 0.2 mL dose of 100 μg cedar pollen and 1 mg Alum mixture was administered to 6-week-old female Balb/c mice (Japan SLC Inc.) (day 0 of the example). Alum was used as an adjuvant. Seven days later and 14 days later, the Balb/c mice were immunized again with 0.2 mL injections of the above mixture. Starting on day 20, mice were orally treated with 10 mg/kg of norathyriol, 10 mg/kg of mangiferin 8a, 10 mg/kg of tofacitinib (JAK inhibitor), 2 mg/kg of dexamethasone (steroid) and 10 mg/kg of olopatadine (antihistamine) daily for 8 consecutive days. Starting on day 21, 500 μg cedar pollen was administered intranasally, and nose-scratching behavior was measured on day 27. […]
Serum was collected from day 28 mice in Examples 28 and 29, and IL-4 production was measured by enzyme-linked immunosorbent assay (ELISA). This assay was performed using a mouse IL-4 ELISA kit (R&D).

[3] = test system: Balb/c mice with cedar pollinosis; assay: Nose scratching behavior, cedar pollinosis model mice; details: oral daily 8 days from day 20, 10 mg/kg (dexamethasone 2 mg/kg), measured day 27, vs vehicle group
Description: as §2, with “of 100” for “of 50”, “μg cedar pollen” for “μg ovalbumin (OVA)”, “and 1” for “and 2”, “21, 500” for “21, 400”, “μg cedar pollen” for “μg OVA”, “in cedar pollinosis” for “in allergic rhinitis”
The group that was just immunized with cedar pollen is called the subject group, the one that received norathyriol is called the norathyriol group, the one that received mangiferin 8a is called the mangiferin 8a group, the one that received tofacitinib is called the tofacitinib group, the one that received dexamethasone is called the dexamethasone group, and the one that received olopatadine is called the olopatadine group. Each group consisted of five animals.

Row | Compound | amount of IL-5 (IL-5 [1]) | amount of IgE antibody (IgE antibody) | amount of IL-5 (IL-5 [2]) | amount of IL-17 (IL-17) | amount of OVA-IgE antibody (OVA-IgE antibody) | amount of IL-4 (IL-4) | number of nose scratches [3]
1 | C[C@@H]1C[C@H]2[C@@H]3CCC4=CC(=O)C=C[C@]4(C)[C@@]3(F)[C@@H](O)C[C@]2(C)[C@@]1(O)C(=O)CO [dexamethasone] | 249 pg/mL | 36 ng/mL | 314 pg/mL | 227 pg/mL | 18 U/mL | 78 pg/mL | –
2 | CN(C)CC/C=C1/c2ccccc2COc2ccc(CC(=O)O)cc21 [olopatadine] | 832 pg/mL | 111 ng/mL | 880 pg/mL | 839 pg/mL | 69 U/mL | 263 pg/mL | significantly decreased the number of nose scratches
3 | O=c1c2cc(O)c(O)cc2oc2cc(O)cc(O)c12 [norathyriol, 1,3,6,7-tetrahydroxyxanthone] | 475 pg/mL | 84 ng/mL | 633 pg/mL | 583 pg/mL | 28 U/mL | 111 pg/mL | significantly decreased the number of nose scratches
4 | C[C@@H]1CCN(C(=O)CC#N)C[C@@H]1N(C)c1ncnc2[nH]ccc12 [tofacitinib] | 791 pg/mL | 106 ng/mL | 839 pg/mL | 892 pg/mL | 50 U/mL | 213 pg/mL | significantly decreased the number of nose scratches
